Tested on: Hepatotoxicity
Assay: Human drug-induced liver injury (DILI) modelling dataset from Ekins et al

| SMILES | Hepatotoxicity | Hepatotoxicity (Liver) |
| --- | --- | --- |
| NC1=NC(=O)C(c2ccccc2)O1 (stereo not given) [PEMOLINE] | DILI positive (test set) | – |
| CC(C)(C)NC[C@H](O)COc1ccccc1C1CCCC1.CC(C)(C)NC[C@H](O)COc1ccccc1C1CCCC1.O=S(=O)(O)O [PENBUTOLOL SULFATE] | DILI positive (test set) | – |
| CC1(C)S[C@@H]2[C@H](NC(=O)Cc3ccccc3)C(=O)N2[C@H]1C(=O)[O-].[Na+] [PENICILLIN G SODIUM] | DILI positive (training set) | – |
| C1CCC(C(CC2CCCCN2)C2CCCCC2)CC1 (stereo not given) [PERHEXILINE] | DILI positive (training set) | – |
| CC1(C)C(C=C(Cl)Cl)C1C(=O)OCc1cccc(Oc2ccccc2)c1 (stereo not given) [PERMETHRIN] | DILI negative (test set) | – |
| CCOc1ccc(NC(C)=O)cc1 [PHENACETIN] | DILI positive (training set) | – |
| Cl.Nc1ccc(/N=N/c2ccccc2)c(N)n1 [PHENAZOPYRIDINE HYDROCHLORIDE] | DILI positive (training set) | – |
| NNCCc1ccccc1 [PHENELZINE] | – | DILI negative (training set) |
| c1ccc2c(c1)Nc1ccccc1S2 [PHENOTHIAZINE] | DILI positive (test set) | – |
| CC(COc1ccccc1)N(CCCl)Cc1ccccc1.Cl (stereo not given) [PHENOXYBENZAMINE HYDROCHLORIDE] | DILI negative (training set) | – |
| CS(=O)(=O)O.Cc1ccc(N(CC2=NCCN2)c2cccc(O)c2)cc1 [PHENTOLAMINE MESYLATE] | DILI positive (training set) | – |
| S=C=Nc1ccccc1 [PHENYLISOTHIOCYANATE] | DILI positive (test set) | – |
| CC(N)C(O)c1ccccc1.Cl (stereo not given) [PHENYLPROPANOLAMINE HYDROCHLORIDE] | DILI negative (training set) | – |
| O=C1NC(=O)C(c2ccccc2)(c2ccccc2)N1 [PHENYTOIN] | – | DILI positive (training set) |
| CNC(=O)Oc1ccc2c(c1)[C@]1(C)CCN(C)[C@@H]1N2C [PHYSOSTIGMINE] | DILI negative (training set) | – |
| CC[C@@H]1C(=O)OC[C@@H]1Cc1cncn1C [PILOCARPINE] | DILI negative (training set) | – |
| O=c1[nH]c2ccccc2n1C1CCN(CCCC(c2ccc(F)cc2)c2ccc(F)cc2)CC1 [PIMOZIDE] | DILI negative (test set) | – |
| CC(N/C(=N\C#N)Nc1ccncc1)C(C)(C)C (stereo not given) [PINACIDIL ANHYDROUS] | DILI negative (training set) | – |
| CC(C)NCC(O)COc1cccc2[nH]ccc12 (stereo not given) [PINDOLOL] | DILI negative (training set) | – |
| CCc1ccc(CCOc2ccc(CC3SC(=O)NC3=O)cc2)nc1 (stereo not given) [PIOGLITAZONE] | DILI negative (test set) | – |
| CN1C(C(=O)Nc2ccccn2)=C(O)c2ccccc2S1(=O)=O [PIROXICAM] | DILI positive (training set) | – |
| CC(C(=O)O)c1ccc(N2CC=CC2)c(Cl)c1 (stereo not given) [PIRPROFEN] | DILI positive (test set) | – |

| SMILES | Hepatotoxicity | Hepatotoxicity (Liver) |
| --- | --- | --- |
| C[C@]12C=CC(=O)C=C1CC[C@@H]1[C@@H]2C(=O)C[C@@]2(C)[C@H]1CC[C@]2(O)C(=O)CO [PREDNISONE] | DILI negative (training set) | – |
| COc1cc(NC(C)CCCN)c2ncccc2c1.O=P(O)(O)O.O=P(O)(O)O (stereo not given) [PRIMAQUINE PHOSPHATE] | DILI negative (training set) | – |
| CCC1(c2ccccc2)C(=O)NCNC1=O [PRIMIDONE] | DILI negative (training set) | – |
| CCCN(CCC)S(=O)(=O)c1ccc(C(=O)O)cc1 [PROBENECID] | DILI negative (test set) | – |
| CC(C)(Sc1cc(C(C)(C)C)c(O)c(C(C)(C)C)c1)Sc1cc(C(C)(C)C)c(O)c(C(C)(C)C)c1 [PROBUCOL] | DILI negative (test set) | – |
| CNNCc1ccc(C(=O)NC(C)C)cc1.Cl [PROCARBAZINE HYDROCHLORIDE] | DILI positive (training set) | – |
| CN1CCN(CCCN2c3ccccc3Sc3ccc(Cl)cc32)CC1.O=C(O)/C=C\C(=O)O.O=C(O)/C=C\C(=O)O [PROCHLORPERAZINE MALEATE] | DILI positive (test set) | – |
| CC(=O)[C@H]1CC[C@H]2[C@@H]3CCC4=CC(=O)CC[C@]4(C)[C@H]3CC[C@]12C [PROGESTERONE] | DILI positive (training set) | – |
| CN(C)CCCN1c2ccccc2Sc2ccccc21.Cl [PROMAZINE HYDROCHLORIDE] | DILI negative (training set) | – |
| CC(CN1c2ccccc2Sc2ccccc21)N(C)C.Cl (stereo not given) [PROMETHAZINE HYDROCHLORIDE] | DILI negative (training set) | – |
| CC(C)c1cccc(C(C)C)c1O [PROPOFOL] | – | DILI negative (test set) |
| CC(C)NCC(O)COc1cccc2ccccc12 (stereo not given) [PROPRANOLOL] | DILI negative (test set) | – |
| CN[C@@H](C)[C@@H](O)c1ccccc1.Cl [PSEUDOEPHEDRINE HYDROCHLORIDE] | DILI negative (training set) | – |
| COc1ccc(C[C@H](N)C(=O)N[C@H]2[C@@H](O)[C@H](n3cnc4c(N(C)C)ncnc43)O[C@@H]2CO)cc1 [PUROMYCIN] | DILI positive (training set) | – |
| NC(=O)c1cnccn1 [PYRAZINAMIDE] | DILI positive (training set) | – |
| CN(C)C(=O)Oc1ccc[n+](C)c1.[Br-] [PYRIDOSTIGMINE BROMIDE] | DILI negative (training set) | – |
| Cc1ncc(CO)c(CO)c1O [PYRIDOXINE] | – | DILI negative (training set) |
| CCc1nc(N)nc(N)c1-c1ccc(Cl)cc1 [PYRIMETHAMINE] | DILI positive (training set) | – |
| C=C[C@H]1C[N@@]2CC[C@H]1C[C@@H]2[C@@H](O)c1ccnc2ccc(OC)cc12 [QUINIDINE] | DILI positive (training set) | – |
| C=C[C@H]1CN2CC[C@H]1C[C@H]2[C@H](O)c1ccnc2ccc(OC)cc12.C=C[C@H]1CN2CC[C@H]1C[C@H]2[C@H](O)c1ccnc2ccc(OC)cc12.O.O.O=S(=O)(O)O [QUININE SULFATE] | DILI positive (test set) | – |
| C=C[C@H]1C[N@@]2CC[C@H]1C[C@H]2[C@H](O)c1ccnc2ccc(OC)cc12 [QUININE] | DILI positive (training set) | – |
| CCO[C@@H](Cc1ccc(OCCN2c3ccccc3Oc3ccccc32)cc1)C(=O)O [RAGAGLITAZAR] | DILI negative (test set) | – |

| SMILES | Hepatotoxicity | Hepatotoxicity (Liver) |
| --- | --- | --- |
| O=C(c1ccc(OCCN2CCCCC2)cc1)c1c(-c2ccc(O)cc2)sc2cc(O)ccc12 [RALOXIFENE] | DILI negative (training set) | – |
| CNC(=C[N+](=O)[O-])NCCSCc1ccc(CN(C)C)o1 [RANITIDINE] | DILI negative (training set) | – |
| NC(=O)c1ncn([C@@H]2O[C@H](CO)[C@@H](O)[C@H]2O)n1 [RIBAVIRIN] | DILI negative (training set) | – |
| CO[C@H]1/C=C/O[C@@]2(C)Oc3c(C)c(O)c4c(c3C2=O)C2=NC3(CCN(CC(C)C)CC3)NC2=C(NC(=O)/C(C)=C\C=C\[C@H](C)[C@H](O)[C@@H](C)[C@@H](O)[C@@H](C)[C@H](OC(C)=O)[C@@H]1C)C4=O [RIFABUTIN] | – | DILI positive (test set) |
| CO[C@H]1/C=C/O[C@@]2(C)Oc3c(C)c(O)c4c(O)c(c(/C=N/N5CCN(C)CC5)c(O)c4c3C2=O)NC(=O)/C(C)=C\C=C\[C@H](C)[C@H](O)[C@@H](C)[C@@H](O)[C@@H](C)[C@H](OC(C)=O)[C@@H]1C [RIFAMPIN] | DILI negative (test set) | – |
| Nc1nc2ccc(OC(F)(F)F)cc2s1 [RILUZOLE] | DILI positive (training set) | – |
| Cc1nc2n(c(=O)c1CCN1CCC(c3noc4cc(F)ccc34)CC1)CCCC2 [RISPERIDONE] | DILI positive (training set) | – |
| CC(C)c1nc(CN(C)C(=O)N[C@H](C(=O)N[C@@H](Cc2ccccc2)C[C@H](O)[C@H](Cc2ccccc2)NC(=O)OCc2cncs2)C(C)C)cs1 [RITONAVIR] | DILI positive (test set) | – |
| CN(CCOc1ccc(CC2SC(=O)NC2=O)cc1)c1ccccn1 (stereo not given) [ROSIGLITAZONE] | DILI negative (test set) | – |
| C=C(C)[C@H]1Cc2c(ccc3c2O[C@@H]2COc4cc(OC)c(OC)cc4[C@@H]2C3=O)O1 [ROTENONE] | DILI positive (test set) | – |
| CC(C)(C)NC(=O)[C@@H]1C[C@@H]2CCCC[C@@H]2CN1C[C@@H](O)[C@H](Cc1ccccc1)NC(=O)[C@H](CC(N)=O)NC(=O)c1ccc2ccccc2n1.CS(=O)(=O)O [SAQUINAVIR MESYLATE] | – | DILI positive (test set) |
| CN[C@H]1CC[C@@H](c2ccc(Cl)c(Cl)c2)c2ccccc21 [SERTRALINE] | – | DILI negative (training set) |
| OC[C@@H](O)[C@@H](O)[C@H](O)[C@@H](O)CO [SORBITOL] | DILI negative (training set) | – |
| CC(=O)S[C@@H]1CC2=CC(=O)CC[C@]2(C)[C@H]2CC[C@@]3(C)[C@@H](CC[C@@]34CCC(=O)O4)[C@H]12 [SPIRONOLACTONE] | DILI positive (training set) | – |
| Cc1cn([C@H]2C=C[C@@H](CO)O2)c(=O)[nH]c1=O [STAVUDINE] | DILI positive (training set) | – |
| CN[C@@H]1[C@H](O[C@H]2[C@H](O[C@H]3[C@H](O)[C@@H](O)[C@H](N=C(N)N)[C@@H](O)[C@@H]3N=C(N)N)O[C@@H](C)[C@]2(O)C=O)O[C@@H](CO)[C@H](O)[C@H]1O.CN[C@@H]1[C@H](O[C@H]2[C@H](O[C@H]3[C@H](O)[C@@H](O)[C@H](N=C(N)N)[C@@H](O)[C@@H]3N=C(N)N)O[C@@H](C)[C@]2(O)C=O)O[C@@H](CO)[C@H](O)[C@H]1O.O=S(=O)(O)O.O=S(=O)(O)O.O=S(=O)(O)O [STREPTOMYCIN SULFATE] | – | DILI negative (training set) |
| [H]/N=C(/N)N[C@H]1[C@H](O)[C@@H](O)[C@H](O[C@@H]2O[C@@H](C)[C@](O)(C=O)[C@H]2O[C@@H]2O[C@@H](CO)[C@H](O)[C@@H](O)[C@@H]2NC)[C@@H](N/C(N)=N\[H])[C@@H]1O [STREPTOMYCIN] | – | DILI negative (test set) |
| CN(N=O)C(=O)N[C@@H](C=O)[C@@H](O)[C@H](O)[C@H](O)CO [STREPTOZOCIN] | DILI negative (test set) | – |
| CN1C(C(=O)Nc2nccs2)=C(O)c2ccccc2S1(=O)=O [SUDOXICAM] | DILI positive (test set) | – |
| Clc1ccc(CSC(Cn2ccnc2)c2ccc(Cl)cc2Cl)cc1.O=[N+]([O-])O (stereo not given) [SULCONAZOLE NITRATE] | DILI negative (test set) | – |
| Nc1ccc(S(=O)(=O)NC(=O)c2ccccc2)cc1 [SULFABENZAMIDE] | DILI negative (test set) | – |
